Assays:
Assay in all cases: relative viability (nuclei count vs DMSO), 5 days (fraction); higher = more cells survive
NCI-H1993 = tested on: NCI-H1993
Outline: (§1)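 Lung cancer cell lines in 1536-well plates were dosed by pin tool the day after seeding, either with one drug alone or with a fixed anchor-drug dose plus five library-drug doses (not always all listed) in √10 steps. After 5 days, cells were fixed and their nuclei stained in one step (final 0.05% Triton X-100, 1% formaldehyde, 1 ug/ml Hoechst), then counted on 4× images. Relative viability is the nuclei count in treated wells divided by that in vehicle wells. Values are medians of duplicate plates.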

NCI-H2009 = tested on: NCI-H2009
Outline: as §1

NCI-H2170 = tested on: NCI-H2170
Outline: as §1

NCI-H2228 = tested on: NCI-H2228
Outline: as §1

NCI-H2347 = tested on: NCI-H2347
Outline: as §1

NCI-H358 = tested on: NCI-H358
Outline: as §1

NCI-H522 = tested on: NCI-H522
Outline: as §1

NCI-H647 = tested on: NCI-H647
Outline: as §1

NCI-H838 = tested on: NCI-H838
Outline: as §1

SK-MES-1 = tested on: SK-MES-1
Outline: as §1

UMC-11 = tested on: UMC-11
Outline: as §1

CC(=O)O[C@@]12CO[C@@H]1C[C@H](O)[C@@]1(C)C(=O)[C@H](O)C3=C(C)[C@@H](OC(=O)[C@H](O)[C@@H](NC(=O)OC(C)(C)C)c4ccccc4)C[C@@](O)([C@@H](OC(=O)c4ccccc4)[C@H]21)C3(C)C [Docetaxel] + N=C(N)NC(=N)NCCc1ccccc1 [Phenformin] (partner 250 µM)
relative viability (NCI-H1993; first compound 0.0002 µM): 0.559 | relative viability (NCI-H1993; first compound 0.000632 µM): 0.604 | relative viability (NCI-H1993; first compound 0.002 µM): 0.556 | relative viability (NCI-H1993; first compound 0.006325 µM): 0.489 | relative viability (NCI-H1993; first compound 0.02 µM): 0.439 | relative viability (NCI-H2009; first compound 0.0002 µM): 0.483 | relative viability (NCI-H2009; first compound 0.000632 µM): 0.526 | relative viability (NCI-H2009; first compound 0.002 µM): 0.463 | relative viability (NCI-H2009; first compound 0.006325 µM): 0.321 | relative viability (NCI-H2009; first compound 0.02 µM): 0.202 | relative viability (NCI-H2170; first compound 0.0002 µM): 0.405 | relative viability (NCI-H2170; first compound 0.000632 µM): 0.428 | relative viability (NCI-H2170; first compound 0.002 µM): 0.267 | relative viability (NCI-H2170; first compound 0.006325 µM): 0.217 | relative viability (NCI-H2170; first compound 0.02 µM): 0.174 | relative viability (NCI-H2228; first compound 0.0002 µM): 0.302 | relative viability (NCI-H2228; first compound 0.000632 µM): 0.173 | relative viability (NCI-H2228; first compound 0.002 µM): 0.147 | relative viability (NCI-H2228; first compound 0.006325 µM): 0.158 | relative viability (NCI-H2228; first compound 0.02 µM): 0.123 | relative viability (NCI-H2347; first compound 0.0002 µM): 0.496 | relative viability (NCI-H2347; first compound 0.000632 µM): 0.303 | relative viability (NCI-H2347; first compound 0.002 µM): 0.295 | relative viability (NCI-H2347; first compound 0.006325 µM): 0.201 | relative viability (NCI-H2347; first compound 0.02 µM): 0.256 | relative viability (NCI-H358; first compound 0.0002 µM): 0.247 | relative viability (NCI-H358; first compound 0.000632 µM): 0.188 | relative viability (NCI-H358; first compound 0.006325 µM): 0.0907 | relative viability (NCI-H358; first compound 0.02 µM): 0.0664 | relative viability (NCI-H522; first compound 0.0002 µM): 0.611 | relative viability (NCI-H522; first compound 0.000632 µM): 0.433 | relative viability (NCI-H522; first compound 0.002 µM): 0.527 | relative viability (NCI-H522; first compound 0.006325 µM): 0.55 | relative viability (NCI-H522; first compound 0.02 µM): 0.471 | relative viability (NCI-H647; first compound 0.0002 µM): 0.329 | relative viability (NCI-H647; first compound 0.000632 µM): 0.322 | relative viability (NCI-H647; first compound 0.002 µM): 0.133 | relative viability (NCI-H647; first compound 0.006325 µM): 0.106 | relative viability (NCI-H647; first compound 0.02 µM): 0.0836 | relative viability (NCI-H838; first compound 0.0002 µM): 0.533 | relative viability (NCI-H838; first compound 0.000632 µM): 0.386 | relative viability (NCI-H838; first compound 0.002 µM): 0.198 | relative viability (NCI-H838; first compound 0.006325 µM): 0.161 | relative viability (NCI-H838; first compound 0.02 µM): 0.108 | relative viability (SK-MES-1; first compound 0.0002 µM): 0.664 | relative viability (SK-MES-1; first compound 0.000632 µM): 0.667 | relative viability (SK-MES-1; first compound 0.002 µM): 0.364 | relative viability (SK-MES-1; first compound 0.006325 µM): 0.273 | relative viability (SK-MES-1; first compound 0.02 µM): 0.179 | relative viability (UMC-11; first compound 0.0002 µM): 0.309 | relative viability (UMC-11; first compound 0.000632 µM): 0.332 | relative viability (UMC-11; first compound 0.002 µM): 0.228 | relative viability (UMC-11; first compound 0.006325 µM): 0.205 | relative viability (UMC-11; first compound 0.02 µM): 0.199

From the supplement of paper PMC10307832
